Data on 33 compounds can be found in US20080269213A1, “8-Hydroxyquinoline compounds and methods thereof” (Wyeth, priority 2006, published 2008).

Values joined by “and” are separate entries in the source; they are usually repeats but may differ in a detail not shown here. Identical values can stand only once.

The first test deals with T1, recombinant human Aggrecanase-2 Agg2-Phe628 (Homo sapiens, UniProt Q9UNA0).
T1 sequence (Q9UNA0 262-628 limits assumed): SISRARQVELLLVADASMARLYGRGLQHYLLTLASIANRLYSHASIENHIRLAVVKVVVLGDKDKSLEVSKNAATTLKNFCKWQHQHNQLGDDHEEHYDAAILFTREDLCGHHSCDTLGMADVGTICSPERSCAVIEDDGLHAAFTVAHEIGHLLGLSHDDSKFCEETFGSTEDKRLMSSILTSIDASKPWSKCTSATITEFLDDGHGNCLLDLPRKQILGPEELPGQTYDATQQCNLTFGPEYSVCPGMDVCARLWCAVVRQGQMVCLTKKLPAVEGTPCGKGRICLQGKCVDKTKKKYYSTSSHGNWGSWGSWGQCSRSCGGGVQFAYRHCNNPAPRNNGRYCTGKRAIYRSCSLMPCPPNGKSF
The test can be described thus: Aggrecanase 2 in vitro enzyme assay (Agg-2 FRET, quenched fluorescent peptide substrate). Type of test: biochemical. Also on record: purified recombinant human Aggrecanase-2 Agg2-Phe628 (MW=41,737); This is a truncated form of full-length human aggrecanase-2; made in house; host or cells: CHO cells. The conditions noted are these: @ 2500 nM. On the procedure:
A continuous assay was used in which the substrate was a synthetic peptide containing a fluorescent group (o-aminobenzyl, Abz), which was quenched by energy transfer to a 2,4-dinitrophenyl group (Dnp). The buffer used in this assay was 50 mM HEPES, pH 7.5, 100 mM NaCl, 5 mM CaCl2, 0.1% CHAPS, 5% glycerol. The source of enzyme was purified recombinant human Aggrecanase-2 Agg2-Phe628 (MW=41,737). This is a truncated form of full-length human aggrecanase-2 that was expressed in CHO cells and purified. The final concentration of Agg2-Phe628 was 0.5 μg/ml. […] It is a synthetic peptide that is designed after a portion of brevican, one of the naturally occurring substrates of Aggrecanase-2, of the sequence Abz-[…]-Dap(Dnp)-KK—NH2 (mass=1740). The concentration of this substrate stock was spectrophotometrically determined using the extinction coefficient at 354 nm of 18,172 M^−1cm^−1. […] The final concentration of substrate in the assay was 25 μM.
Test compounds (in duplicate) were serially diluted from 2 mM to 0.01 μM in 100% DMSO. The total reaction volume was 100 μl. The buffer and enzyme were added first followed by addition of 10× inhibitor from the dilution plate. Enzyme and buffer alone samples were included in order to obtain the maximal rate of substrate cleavage. […] Then substrate was added, mixed and the reaction monitored for 40 min at 30° C. in kinetic mode using λex: 340 nm and % λem: 420 (GeminiXS Molecular Devices).
Consider `O=C(COc1ccccc1)NC(c1ccccc1O)c1cc(Cl)c2cccnc2c1O` (stereo not drawn) [N-[(5-chloro-8-hydroxyquinolin-7-yl)(2-hydroxyphenyl)methyl]-2-phenoxyacetamide], for which the inhibition at […] was 62%.

The test is the same for the next values; noted with them: concentration not given.
As for `COc1c(C(NC(=O)COc2ccccc2)c2ccccc2)cc(Cl)c2cccnc12` (stereo not drawn) [N-[(5-chloro-8-methoxyquinolin-7-yl)(phenyl)methyl]-2-phenoxyacetamide], the “Agg-2 FRET Median PCT INHIB” value amounted to 50%.

For the compound `Cc1cc(OCC(=O)NC(c2cccc([N+](=O)[O-])c2)c2cc(Cl)c3cccnc3c2O)ccc1Cl` (stereo not drawn) [N-[(5-chloro-8-hydroxyquinolin-7-yl)(3-nitrophenyl)methyl]-2-(4-chloro-3-methylphenoxy)acetamide], the “Agg-2 FRET Median PCT INHIB” value stood at 53%. The same measure, in the same setting: with `O=C(COc1ccccc1)NC(c1ccc(Cl)cc1Cl)c1cc(Cl)c2cccnc2c1O` (stereo not drawn) [N-[(5-chloro-8-hydroxyquinolin-7-yl)(2,4-dichlorophenyl)methyl]-2-phenoxyacetamide] the figure was 57%; with `Cc1ccccc1C(NC(=O)CCCc1ccccc1)c1cc(Cl)c2cccnc2c1O` (stereo not drawn) [N-[(5-chloro-8-hydroxyquinolin-7-yl)(2-methylphenyl)methyl]-4-phenylbutanamide], 49%. The same measure, in the same setting: with `CC(C)(C)c1ccc(OCC(=O)NC(c2cccc(F)c2)c2cc(Cl)c3cccnc3c2O)cc1` (stereo not drawn) [2-(4-tert-butylphenoxy)-N-[(5-chloro-8-hydroxyquinolin-7-yl)(3-fluorophenyl)methyl]acetamide] the figure was 43%; with `Cc1ccc(C(NC(=O)CCCc2ccccc2)c2cc(Cl)c3cccnc3c2O)cc1` (stereo not drawn) [N-[(5-chloro-8-hydroxyquinolin-7-yl)(4-methylphenyl)methyl]-4-phenylbutanamide], 41%; with `COc1c(C(NC(=O)COc2ccccc2)c2ccccc2Cl)cc(Cl)c2cccnc12` (stereo not drawn) [N-[(5-chloro-8-methoxyquinolin-7-yl)(2-chlorophenyl)methyl]-2-phenoxyacetamide], 32%. Still for that read-out and setting: with `COc1ccc(C(NC(=O)COc2ccc(Cl)c(C)c2)c2cc(Cl)c3cccnc3c2O)cc1` (stereo not drawn) [N-[(5-chloro-8-hydroxyquinolin-7-yl)(4-methoxyphenyl)methyl]-2-(4-chloro-3-methylphenoxy)acetamide] the figure was 57%. With `CC(C)(C)c1ccc(NCC(=O)NC(c2ccccc2Cl)c2cc(Cl)c3cccnc3c2O)cc1` (stereo not drawn) [Example 20, N^2-(4-tert-butylphenyl)-N^1-[(5-chloro-8-hydroxyquinolin-7-yl)(2-chlorophenyl)methyl]glycinamide], the “Agg-2 FRET Median PCT INHIB” value came out at 54%.

Staying with this test, now noted: read-out: Agg2 IC50.
For `O=C(COc1ccccc1)NC(c1cnc2ccccc2c1)c1cc(Cl)c2cccnc2c1O` (stereo not drawn) [N-[(5-chloro-8-hydroxyquinolin-7-yl)(quinolin-3-yl)methyl]-2-phenoxyacetamide], the IC50 was found to be 1300 nM.

The same test, now with this note: read-out: Agg-2 FRET Median IC50.
Take `O=C(COc1ccccc1)NC(c1ccccc1Cl)c1ccc2cccnc2c1O` (stereo not drawn) [N-[(2-chlorophenyl)(8-hydroxyquinolin-7-yl)methyl]-2-phenoxyacetamide]: the concentration for half-maximal inhibition (IC50) was 2500 nM. As for `COc1cccc(C(NC(=O)COc2ccccc2)c2cc(Cl)c3cccnc3c2O)c1` (stereo not drawn) [N-[(5-chloro-8-hydroxyquinolin-7-yl)(3-methoxyphenyl)methyl]-2-phenoxyacetamide], the IC50 stood at 1840 nM. With `O=C(NC(c1ccccc1)c1cc(Cl)c2cccnc2c1O)c1ccccc1` (stereo not drawn) [N-[(5-chloro-8-hydroxyquinolin-7-yl)(phenyl)methyl]benzamide], the half-inhibitory concentration (IC50) is 1310 nM.

For `O=C(COc1ccccc1)NC(c1ccc(F)cc1Cl)c1cc(Cl)c2cccnc2c1O` (stereo not drawn) [N-[(2-chloro-4-fluorophenyl)(5-chloro-8-hydroxyquinolin-7-yl)methyl]-2-phenoxyacetamide], the IC50 was 1090 nM. On the same count and under the same terms, the same measure for `Cc1ccc(C(NC(=O)CN(C)c2ccccc2)c2cc(Cl)c3cccnc3c2O)cc1` (stereo not drawn) [Example 58, N^1-[(5-chloro-8-hydroxyquinolin-7-yl)(4-methylphenyl)methyl]-N^2-methyl-N^2-phenylglycinamide]: 776 nM; for `O=C(COc1ccccc1)NC(c1cccs1)c1cc(Cl)c2cccnc2c1O` (stereo not drawn) [N-[(5-chloro-8-hydroxyquinolin-7-yl)(2-thienyl)methyl]-2-phenoxyacetamide]: 1220 nM. Still for that read-out and setting: with `COc1ccc(C(NC(=O)COc2ccccc2)c2cc(Cl)c3cccnc3c2O)cc1` (stereo not drawn) [N-[(5-chloro-8-hydroxyquinolin-7-yl)(4-methoxyphenyl)methyl]-2-phenoxyacetamide] the figure was 1120 nM and 1000 nM; with `Cc1ccc(OCC(=O)NC(c2ccccc2)c2ccc3cccnc3c2O)cc1` (stereo not drawn) [N-[(8-hydroxyquinolin-7-yl)(phenyl)methyl]-2-(4-methylphenoxy)acetamide], 2470 nM. The same measure, in the same setting: the same measure for `COc1ccc(C(NC(=O)COc2cccnc2)c2cc(Cl)c3cccnc3c2O)cc1` (stereo not drawn) [N-[(5-chloro-8-hydroxyquinolin-7-yl)(4-methoxyphenyl)methyl]-2-(pyridin-3-yloxy)acetamide]: 2980 nM; for `Cc1cc(C(NC(=O)COc2ccccc2)c2cccc([N+](=O)[O-])c2)c(O)c2ncccc12` (stereo not drawn) [Example 46, N-[(8-hydroxy-5-methylquinolin-7-yl)(3-nitrophenyl)methyl]-2-phenoxyacetamide]: 1320 nM. Take `CC(=O)c1ccc(OCC(=O)NC(c2cccc([N+](=O)[O-])c2)c2cc(Cl)c3cccnc3c2O)cc1` (stereo not drawn) [2-(4-acetylphenoxy)-N-[(5-chloro-8-hydroxyquinolin-7-yl)(3-nitrophenyl)methyl]acetamide]: the 50% inhibitory concentration (IC50) amounted to 2330 nM. The same measure, in the same setting: with `O=C(CNc1cccnc1)NC(c1ccccc1Cl)c1cc(Cl)c2cccnc2c1O` (stereo not drawn) [Example 18, N^1-[(5-chloro-8-hydroxyquinolin-7-yl)(2-chlorophenyl)methyl]-N^2-pyridin-3-ylglycinamide] the figure was 16900 nM; with `COc1ccc(OCC(=O)NC(c2ccc(OC)cc2)c2ccc3cccnc3c2O)cc1` (stereo not drawn) [N-[(8-hydroxyquinolin-7-yl)(4-methoxyphenyl)methyl]-2-(4-methoxyphenoxy)acetamide], 4510 nM; with “N-[(8-hydroxyquinolin-7-yl)(4-methoxyphenyl)methyl]-2-(4-phenoxyphenoxy)acetamide [Example 76]”, 3220 nM. With `CN(CC(=O)NC(c1cccc([N+](=O)[O-])c1)c1cc(Cl)c2cccnc2c1O)c1ccccc1` (stereo not drawn) [Example 62, N^1-[(5-chloro-8-hydroxyquinolin-7-yl)(3-nitrophenyl)methyl]-N^2-methyl-N^2-phenylglycinamide], the IC50 was 559 nM.

As to `Cc1ccccc1C(NC(=O)COc1ccccc1)c1cc(Br)c2cccnc2c1O` (stereo not drawn) [N-[(5-bromo-8-hydroxyquinolin-7-yl)(2-methylphenyl)methyl]-2-phenoxyacetamide], the IC50 turned out to be 1000 nM. Same read-out and setting: the same measure for `O=C(COCc1ccccc1)NC(c1cccc(F)c1)c1cc(Cl)c2cccnc2c1O` (stereo not drawn) [2-(benzyloxy)-N-[(5-chloro-8-hydroxyquinolin-7-yl)(3-fluorophenyl)methyl]acetamide]: 828 nM. Consider `COc1cc(C(NC(=O)COc2ccccc2)c2cc(Cl)c3cccnc3c2O)ccc1O` (stereo not drawn) [N-[(5-chloro-8-hydroxyquinolin-7-yl)(4-hydroxy-3-methoxyphenyl)methyl]-2-phenoxyacetamide], for which the concentration for half-maximal inhibition (IC50) is 7300 nM. Same read-out and setting: with `COc1ccc(OCC(=O)NC(c2ccccc2)c2ccc3cccnc3c2O)cc1` (stereo not drawn) [N-[(8-hydroxyquinolin-7-yl)(phenyl)methyl]-2-(4-methoxyphenoxy)acetamide] the figure was 3340 nM; with `O=C(COc1ccccc1)NC(c1ccc([N+](=O)[O-])cc1)c1ccc2cccnc2c1O` (stereo not drawn) [N-[(8-hydroxyquinolin-7-yl)(4-nitrophenyl)methyl]-2-phenoxyacetamide], 2390 nM. Same read-out and setting: with `O=C(COc1ccccc1)NC(c1cccc(F)c1)c1ccc2cccnc2c1O` (stereo not drawn) [N-[(3-fluorophenyl)(8-hydroxyquinolin-7-yl)methyl]-2-phenoxyacetamide] the figure was 2760 nM.

Take `Cc1ccc(C(NC(=O)CN(C)Cc2ccccc2)c2cc(Cl)c3cccnc3c2O)cc1` (stereo not drawn) [Example 59, N^2-benzyl-N^1-[(5-chloro-8-hydroxyquinolin-7-yl)(4-methylphenyl)methyl]-N^2-methylglycinamide]: the 50% inhibitory concentration (IC50) worked out at 1280 nM.
